Measured values reported in US7060721B1, “Imidazole compounds and medicinal use thereof” (Fujisawa Pharmaceutical Co., Ltd., priority 1998, dated 2006).

Structure (SMILES)	melting point
Cc1nc(Cl)c(/C=C/C(=O)NS(=O)(=O)/C=C/c2ccccc2)n1Cc1ccc(-c2ccco2)cc1Cl [Example 2, (2E)-3-(4-chloro-1-(2-chloro-4-(2-furyl)benzyl)-2-methylimidazol-5-yl)-N-(((E)-2-phenylethenyl)sulfonyl)-2-propenamide]	227 to 228 °C
Cc1nc(Cl)c(/C=C/C(=O)NS(=O)(=O)/C=C/c2ccccc2)n1Cc1ccc(-c2cccs2)cc1Cl [Example 4, (2E)-3-(4-chloro-1-(2-chloro-4-(2-thienyl)benzyl)-2-methylimidazol-5-yl)-N-(((E)-2-phenylethenyl)sulfonyl)-2-propenamide]	246 to 248 °C
Cc1nc(Cl)c(/C=C/C(=O)NS(=O)(=O)/C=C/c2ccccc2)n1Cc1ccc(C#Cc2ccccc2)cc1Cl [Example 6, (2E)-3-(4-chloro-1-(2-chloro-4-(phenylethynyl)benzyl)-2-methylimidazol-5-yl)-N-(((E)-2-phenylethenyl)sulfonyl)-2-propenamide]	220 to 222 °C
Cc1nc(Cl)c(/C=C/C(=O)NS(=O)(=O)/C=C/c2ccccc2)n1Cc1ccc(Br)cc1Cl [Example 8, (E)-3-(1-(4-bromo-2-chlorobenzyl)-4-chloro-2-methylimidazol-5-yl)-N-(((E)-2-phenylethenyl)sulfonyl)-2-propenamide]	250 to 251 °C
CCCCCS(=O)(=O)NC(=O)/C=C/c1c(Cl)nc(C)n1Cc1ccc(-c2ccccc2)cc1Cl [Example 9, (E)-3-[4-chloro-1-(2-chloro-4-phenylbenzyl)-2-methylimidazol-5-yl]-N-(1-pentanesulfonyl)-2-propenamide]	203 to 204 °C
Cc1nc(Cl)c(/C=C/C(=O)NS(=O)(=O)c2ccccc2)n1Cc1ccc(-c2ccccc2)cc1Cl [Example 10, (E)-N-benzenesulfonyl-3-[4-chloro-1-(2-chloro-4-phenylbenzyl)-2-methylimidazol-5-yl]-2-propenamide]	245 to 247 °C
Cc1nc(Cl)c(/C=C/C(=O)NS(=O)(=O)/C=C/c2ccccc2)n1Cc1ccc(-c2ccccc2)cc1Cl [Example 12, (E)-3-(4-chloro-1-(2-chloro-4-phenylbenzyl)-2-methylimidazol-5-yl)-N-(((E)-2-phenylethenyl)sulfonyl)-2-propenamide]	240 to 241 °C
Cc1nc(Cl)c(/C=C/C(=O)NS(=O)(=O)c2ccc(Cl)s2)n1Cc1ccc(-c2ccccc2)cc1Cl [Example 13, (E)-3-(4-chloro-1-(2-chloro-4-phenylbenzyl)-2-methylimidazol-5-yl)-N-((5-chloro-2-thienyl)sulfonyl)-2-propenamide]	229 to 233 °C
Cc1nc(Cl)c(/C=C/C(=O)NS(=O)(=O)c2ccc(Br)s2)n1Cc1ccc(-c2ccccc2)cc1Cl [Example 14, (E)-N-((5-bromo-2-thienyl)sulfonyl)-3-(4-chloro-1-(2-chloro-4-phenylbenzyl)-2-methylimidazol-5-yl)-2-propenamide]	234 to 235 °C
CCCOc1ccc(Cn2c(C)nc(Cl)c2/C=C/C(=O)NS(=O)(=O)/C=C/c2ccccc2)c(Cl)c1 [Example 16, (E)-3-(4-chloro-1-(2-chloro-4-(1-propoxy)benzyl)-2-methylimidazol-5-yl)-N-(((E)-2-phenylethenyl)sulfonyl)-2-propenamide]	199 to 201 °C
CCCCCOc1ccc(Cn2c(C)nc(Cl)c2/C=C/C(=O)NS(=O)(=O)/C=C/c2ccccc2)c(Cl)c1 [Example 18, (E)-3-(4-chloro-1-(2-chloro-4-(1-pentyloxy)benzyl)-2-methylimidazol-5-yl)-N-(((E)-2-phenylethenyl)sulfonyl)-2-propenamide]	196 to 199 °C
CCCCCS(=O)(=O)NC(=O)/C=C/c1c(Cl)nc(C)n1Cc1ccc(OCC2CCCC2)cc1Cl [Example 19, (E)-3-(4-chloro-1-(2-chloro-4-((cyclopentyl)methyloxy)benzyl)-2-methylimidazol-5-yl)-N-(1-pentanesulfonyl)-2-propenamide]	177 to 178 °C
Cc1nc(Cl)c(/C=C/C(=O)NS(=O)(=O)/C=C/c2ccccc2)n1Cc1ccc(OCC2CCCC2)cc1Cl [Example 21, (2E)-3-(4-chloro-1-(2-chloro-4-((cyclopentyl)methyloxy)benzyl)-2-methylimidazol-5-yl)-N-(((E)-2-phenylethenyl)sulfonyl)-2-propenamide]	200 to 201 °C
Cc1nc(Cl)c(/C=C/C(=O)NS(=O)(=O)/C=C/c2ccccc2)n1Cc1ccc(OCC2CCCCC2)cc1Cl [Example 23, (2E)-3-(4-chloro-1-(2-chloro-4-((cyclohexyl)methyloxy)benzyl)-2-methylimidazol-5-yl)-N-(((E)-2-phenylethenyl)sulfonyl)-2-propenamide]	210 to 212 °C
Cc1nc(Cl)c(/C=C/C(=O)NS(=O)(=O)/C=C/c2ccccc2)n1Cc1ccc(OCc2ccccc2)cc1Cl [Example 25, (E)-3-(1-(4-benzyloxy-2-chlorobenzyl)-4-chloro-2-methylimidazol-5-yl)-N-(((E)-2-phenylethenyl)sulfonyl)-2-propenamide]	225 to 227 °C
CSc1ccc(Cn2c(C)nc(Cl)c2/C=C/C(=O)NS(=O)(=O)/C=C/c2ccccc2)c(Cl)c1 [Example 27, (E)-3-(4-chloro-1-(2-chloro-4-(methylthio)benzyl)-2-methylimidazol-5-yl)-N-(((E)-2-phenylethenyl)sulfonyl)-2-propenamide]	237 to 238 °C
Cc1nc(Cl)c(/C=C/C(=O)NS(=O)(=O)/C=C/c2ccccc2)n1Cc1ccc(C(F)(F)F)cc1Cl [Example 29, (E)-3-(4-chloro-1-(2-chloro-4-(trifluoromethyl)benzyl)-2-methylimidazol-5-yl)-N-(((E)-2-phenylethenyl)sulfonyl)-2-propenamide]	261 to 263 °C
Cc1nc(Cl)c(/C=C/C(=O)NS(=O)(=O)/C=C/c2ccccc2)n1Cc1ccc(COc2ccccc2)cc1Cl [Example 31, (E)-3-(4-chloro-1-(2-chloro-4-(phenoxymethyl)benzyl)-2-methylimidazol-5-yl)-N-(((E)-2-phenylethenyl)sulfonyl)-2-propenamide]	202 to 203 °C
Cc1nc(Cl)c(/C=C/C(=O)NS(=O)(=O)/C=C/c2ccccc2)n1Cc1ccc([N+](=O)[O-])cc1Cl [Example 33, (E)-3-(4-chloro-1-(2-chloro-4-nitrobenzyl)-2-methylimidazol-5-yl)-N-(((E)-2-phenylethenyl)sulfonyl)-2-propenamide]	199 to 201 °C
Cc1nc(Cl)c(/C=C/C(=O)NS(=O)(=O)/C=C/c2ccccc2)n1Cc1ccc(/C=C/c2ccccc2)cc1Cl [Example 35, (E)-3-(4-chloro-1-(2-chloro-4-((E)-2-phenylethenyl)benzyl)-2-methylimidazol-5-yl)-N-(((E)-2-phenylethenyl)sulfonyl)-2-propenamide]	230 to 232 °C
CCCCCS(=O)(=O)NC(=O)/C=C/c1c(Cl)nc(C)n1Cc1ccc(/C=C/c2ccccc2)cc1Cl [Example 41, (E)-3-(4-chloro-1-(2-chloro-4-((E)-2-phenylethenyl)benzyl)-2-methylimidazol-5-yl)-N-(1-pentanesulfonyl)-2-propenamide]	215 to 216 °C
CCC/C=C/S(=O)(=O)NC(=O)/C=C/c1c(Cl)nc(C)n1Cc1ccc(/C=C/c2ccccc2)cc1Cl [Example 42, (E)-3-(4-chloro-1-(2-chloro-4-((E)-2-phenylethenyl)benzyl)-2-methylimidazol-5-yl)-N-((E)-1-penten-1-ylsulfonyl)-2-propenamide]	226 to 228 °C
CCCCCS(=O)(=O)NC(=O)/C=C/c1c(Cl)nc(C)n1Cc1ccc(C#Cc2ccccc2)cc1Cl [Example 44, (E)-3-(4-chloro-1-(2-chloro-4-(phenylethynyl)benzyl)-2-methylimidazol-5-yl)-N-(1-pentanesulfonyl)-2-propenamide]	207 to 209 °C
CCC/C=C/S(=O)(=O)NC(=O)/C=C/c1c(Cl)nc(C)n1Cc1ccc(C#Cc2ccccc2)cc1Cl [Example 45, (E)-3-(4-chloro-1-(2-chloro-4-(phenylethynyl)benzyl)-2-methylimidazol-5-yl)-N-((E)-1-penten-1-ylsulfonyl)-2-propenamide]	207 to 210 °C
Cc1nc(Cl)c(/C=C/C(=O)NS(=O)(=O)/C=C/c2ccccc2)n1Cc1ncc(C(F)(F)F)cc1Cl [Example 47, (E)-3-(4-chloro-1-((3-chloro-5-(trifluoromethyl)pyridin-2-yl)methyl)-2-methylimidazol-5-yl)-N-((E)-2-phenylethenylsulfonyl)-2-propenamide]	249 to 252 °C
CCCCCS(=O)(=O)NC(=O)/C=C/c1c(Cl)nc(C)n1Cc1ccc(NC(=O)OC(C)(C)C)cc1Cl [Example 49, (E)-3-(1-(4-(tert-butoxycarbonylamino)-2-chlorobenzyl)-4-chloro-2-methylimidazol-5-yl)-N-(1-pentanesulfonyl)-2-propenamide]	202 to 204 °C
CCC/C=C/S(=O)(=O)NC(=O)/C=C/c1c(Cl)nc(C)n1Cc1ccc(NC(=O)OC(C)(C)C)cc1Cl [Example 50, (E)-3-(1-(4-(tert-butoxycarbonylamino)-2-chlorobenzyl)-4-chloro-2-methylimidazol-5-yl)-N-((E)-1-penten-1-ylsulfonyl)-2-propenamide]	209 to 210 °C
CCc1nc(Cl)c(/C=C/C(=O)NS(=O)(=O)/C=C/c2ccccc2)n1Cc1ccc(Br)cc1Cl [Example 53, (E)-3-(1-(4-bromo-2-chlorobenzyl)-4-chloro-2-ethylimidazol-5-yl)-N-((E)-2-phenylethenesulfonyl)-2-propenamide]	209 to 210 °C
CCc1nc(Cl)c(/C=C/C(=O)NS(=O)(=O)/C=C/c2ccccc2)n1Cc1ccc(C#Cc2ccccc2)cc1Cl [Example 54, (E)-3-(4-chloro-1-(2-chloro-4-(phenylethynyl)benzyl)-2-ethylimidazol-5-yl)-N-((E)-2-phenylethenesulfonyl)-2-propenamide]	233 to 234 °C
CCCCS(=O)(=O)NC(=O)/C=C/c1c(Cl)nc(CC)n1Cc1ccc(C#Cc2ccccc2)cc1Cl [Example 56, (E)-N-(1-butanesulfonyl)-3-(4-chloro-1-(2-chloro-4-(phenylethynyl)benzyl)-2-ethylimidazol-5-yl)-2-propenamide]	165 to 167 °C
